Data taken from patent US20250052016A1, “ARTIFICIAL TURF COMPRISING ANTIMICROBIAL POLYURETHANE BACKING” (Synthetic Turf Resources (STR), priority 2022, published 2025).

Tests used:
E. coli = conditions: added in the polyurethane reaction mixture in amounts of 0.1 wt % to 0.5 wt %
S. aureus = conditions: added in the polyurethane reaction mixture in amounts of 0.1 wt % to 0.5 wt %

zinc pyrithione was tested, and the “effectiveness against E. coli” value (E. coli) was “particularly effective” and the “effectiveness against S. aureus” value (S. aureus) was “particularly effective”.
